Earlier results on one substance are cited in US20240043473A1, “NOOTROPIC PEPTIDES FOR TREATING LYSOSOMAL STORAGE DISEASES” (Phoenix Nest Inc., priority 2021, published 2024).

The subject of the series is BDNF and its signaling receptor TrkB in the hippocampus. The note with it: in animals; cited from earlier work.

As for “Semax: synthetic analogue of ACTH(4-10), consisting of ACTH(4-7) and the C-terminal tripeptide Pro-Gly-Pro; MEHFPGP (SEQ ID NO: 1)”, the “levels and expression of BDNF and its signaling receptor TrkB in the hippocampus” value is “rapidly elevates the levels and expression”; the “serotonergic and dopaminergic brain systems” value is given as “rapidly activates”.
